ChEMBL document CHEMBL1201862, “PubChem BioAssay data set” (2004)
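Growth conditions: 96-well plates. Treatment: test compound, 48 hours, 5 concentrations. Analysis: linear interpolation between bracketing concentrations; unreached endpoints set to highest concentration. Here, GI50 denotes the concentration required for 50% inhibition of growth.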 Activity calls are given as the source filed them. Rule as the data show it: active = GI50 up to about 1.1 µM and inactive = higher.

Experiments:
Experiment in all cases: growth of human tumour cells (NCI), 48 h
786-0 = tested on: 786-0
A549 = tested on: A549
ACHN = tested on: ACHN
CAKI-1 = tested on: CAKI-1
HOP-62 = tested on: HOP-62
IGROV-1 = tested on: IGROV-1
K562 = tested on: K562
LOX IMVI = tested on: LOX IMVI
M14 = tested on: M14
Malme-3M = tested on: Malme-3M
NCI-H23 = tested on: NCI-H23
NCI-H522 = tested on: NCI-H522
RPMI-8226 = tested on: RPMI-8226
SN12C = tested on: SN12C
TK-10 = tested on: TK-10
UACC-62 = tested on: UACC-62
UO-31 = tested on: UO-31
NCI/ADR-RES = tested on: NCI/ADR-RES
UACC-257 = tested on: UACC-257
HL-60 = tested on: HL-60

Measured: GI50

C=C1C(=O)O[C@@H]2C[C@]3(C)[C@@H](C[C@H]12)[C@](C)(O)CC[C@@H]3O
inactive: 786-0 39.4 µM | A549 > 100 µM | ACHN > 100 µM | CAKI-1 66.1 µM | HOP-62 > 100 µM | IGROV-1 > 100 µM | K562 33.4 µM | LOX IMVI 55.7 µM | M14 31.5 µM | Malme-3M 71.3 µM | NCI-H23 30.1 µM | NCI-H522 34.8 µM | RPMI-8226 52.7 µM | SN12C 59.4 µM | TK-10 26.9 µM | UACC-62 32.5 µM | UO-31 > 100 µM

C1CSCC2(COC2)CS1
inactive: A549 > 100 µM | ACHN > 100 µM | K562 > 100 µM | LOX IMVI > 100 µM | NCI-H23 > 100 µM | NCI-H522 > 100 µM | NCI/ADR-RES > 100 µM | SN12C > 100 µM | TK-10 > 100 µM | UACC-257 > 100 µM | UO-31 > 100 µM

CN(C)CCC(/C=C/c1ccccc1)=N\Nc1c(F)c(F)c(F)c(F)c1F
inactive: 786-0 > 100 µM | A549 72.6 µM | ACHN 49.1 µM | HL-60 16 µM | HOP-62 > 100 µM | IGROV-1 > 100 µM | K562 39.4 µM | LOX IMVI > 100 µM | M14 44.1 µM | Malme-3M 38 µM | NCI-H23 > 100 µM | NCI-H522 64.1 µM | RPMI-8226 24.8 µM | SN12C 64.6 µM | TK-10 > 100 µM | UACC-257 26.4 µM | UACC-62 49.2 µM | UO-31 76.4 µM

COc1ccc(C2C(Cl)C(=O)N2NC(=O)c2ccc(N)cc2)cc1 (configuration not stated)
inactive: 786-0 > 100 µM | A549 > 100 µM | ACHN > 100 µM | CAKI-1 > 100 µM | HL-60 > 100 µM | HOP-62 > 100 µM | IGROV-1 > 100 µM | K562 > 100 µM | LOX IMVI > 100 µM | M14 > 100 µM | Malme-3M > 100 µM | NCI-H23 > 100 µM | NCI-H522 > 100 µM | RPMI-8226 > 100 µM | SN12C > 100 µM | TK-10 > 100 µM | UACC-257 > 100 µM | UACC-62 > 100 µM | UO-31 > 100 µM

Cc1ccc2c(c1CCCC(C)(C)O)C(=O)C(O)=C(C(C)C)C2=O
inactive: 786-0 > 100 µM | A549 50.6 µM | ACHN 63 µM | CAKI-1 > 100 µM | HL-60 46.6 µM | IGROV-1 90.4 µM | K562 48.1 µM | M14 > 100 µM | Malme-3M > 100 µM | NCI-H23 59.3 µM | NCI-H522 > 100 µM | RPMI-8226 39.1 µM | SN12C 78.3 µM | TK-10 > 100 µM | UO-31 76 µM

Cc1ccc(C(=O)CC2=Nc3nnc(CCCCCCCc4nnc5n4C(=O)C(CC(=O)c4ccc(C)cc4)=N5)n3C2=O)cc1
inactive: 786-0 > 100 µM | A549 > 100 µM | ACHN > 100 µM | CAKI-1 > 100 µM | HL-60 > 100 µM | HOP-62 > 100 µM | IGROV-1 > 100 µM | K562 > 100 µM | LOX IMVI > 100 µM | M14 > 100 µM | Malme-3M > 100 µM | NCI-H23 > 100 µM | NCI-H522 > 100 µM | RPMI-8226 > 100 µM | SN12C > 100 µM | TK-10 > 100 µM | UACC-257 > 100 µM | UACC-62 > 100 µM | UO-31 > 100 µM

CC1(c2ccc(Cl)cc2)C2C(=O)NC(=O)C1C(=O)NC2=O (configuration not stated)
inactive: 786-0 > 100 µM | A549 > 100 µM | ACHN > 100 µM | CAKI-1 > 100 µM | HL-60 > 100 µM | HOP-62 > 100 µM | IGROV-1 > 100 µM | K562 > 100 µM | LOX IMVI > 100 µM | M14 > 100 µM | Malme-3M > 100 µM | NCI-H23 > 100 µM | NCI-H522 > 100 µM | RPMI-8226 > 100 µM | SN12C > 100 µM | TK-10 > 100 µM | UACC-257 > 100 µM | UACC-62 > 100 µM | UO-31 > 100 µM

CCOC(=O)CC(=O)ON(C)C(=O)Cc1ccccc1
inactive: 786-0 > 100 µM | A549 > 100 µM | ACHN > 100 µM | CAKI-1 > 100 µM | HL-60 > 100 µM | HOP-62 > 100 µM | IGROV-1 > 100 µM | LOX IMVI > 100 µM | M14 > 100 µM | Malme-3M > 100 µM | NCI-H23 > 100 µM | NCI-H522 > 100 µM | RPMI-8226 > 100 µM | SN12C > 100 µM | TK-10 > 10 µM | UACC-257 > 100 µM | UACC-62 > 100 µM | UO-31 > 100 µM

CCOC(OC1=C(C#N)CCCC1)C(CC)[Se]c1ccccc1[N+](=O)[O-] (configuration not stated)
inactive: 786-0 17.8 µM | A549 57.5 µM | ACHN 29.1 µM | CAKI-1 > 100 µM | HL-60 17.1 µM | HOP-62 32.1 µM | IGROV-1 23.9 µM | K562 33.6 µM | LOX IMVI 16 µM | M14 17.9 µM | Malme-3M 22.8 µM | NCI-H23 16.7 µM | NCI-H522 16.3 µM | RPMI-8226 19.5 µM | SN12C 19.6 µM | TK-10 76.2 µM | UACC-257 > 100 µM | UACC-62 22 µM | UO-31 26.8 µM

Cc1cc(O)nc(NNC(C#N)c2cccc(O)c2)n1 (configuration not stated)
inactive: 786-0 > 100 µM | A549 > 100 µM | ACHN > 100 µM | CAKI-1 > 100 µM | HL-60 > 100 µM | HOP-62 > 100 µM | IGROV-1 > 100 µM | K562 > 100 µM | LOX IMVI > 100 µM | M14 > 100 µM | Malme-3M 79.1 µM | NCI-H23 > 100 µM | NCI-H522 > 100 µM | RPMI-8226 > 100 µM | SN12C > 100 µM | TK-10 > 100 µM | UACC-257 > 100 µM | UACC-62 75.7 µM | UO-31 > 100 µM

COc1ccc(C2Oc3cc(OC)c(O)cc3[C@@H]2C)cc1 (some centres not stated)
inactive: 786-0 17.1 µM | A549 59 µM | ACHN 16.5 µM | CAKI-1 29.3 µM | HL-60 18.2 µM | HOP-62 > 100 µM | IGROV-1 > 10 µM | K562 31.5 µM | LOX IMVI 14.3 µM | M14 19.1 µM | Malme-3M 78 µM | NCI-H23 23.6 µM | NCI-H522 16.5 µM | RPMI-8226 22.3 µM | TK-10 45.8 µM | UACC-257 44.6 µM | UACC-62 > 10 µM | UO-31 13.8 µM
